Measured values as given in PMC12040169 (PLOS Biology, 2025).

Assay: in vitro
Details: human, hela cells, % viability

SMILES	viability at 28.5 h, 10 µM [%]	viability at 28.5 h, 10 µM (bulk resorufin, single well) [%]
N#Cc1c(Oc2cccc3cccnc23)cccc1C(F)(F)F [CBK002728]	105	
N#Cc1ccc(COc2ccccc2)cc1 [CBK002738]	96.4	
O=[N+]([O-])c1ccc(Oc2cccc3cccnc23)c(C(F)(F)F)c1 [CBK002739]	80.6	
Cn1cnc([N+](=O)[O-])c1Oc1ccccc1OCc1ccccc1 [CBK002747]	91.7	
COc1ccc([N+](=O)[O-])c(Oc2ccccc2OCc2ccccc2)n1 [CBK002753]	88	
Clc1ccc(COc2ccccc2OCc2ccccc2)s1 [CBK002766]	87.7	
FC(F)(F)Sc1ccc(COc2cccc3cccnc23)cc1 [CBK002776]	94.5	
Cn1cnc([N+](=O)[O-])c1Oc1cccc(C(F)(F)F)c1 [CBK002790]	87	
COc1ccc([N+](=O)[O-])c(Oc2cccc(C(F)(F)F)c2)n1 [CBK002796]	94.5	
O=[N+]([O-])c1cc(F)ccc1Oc1cccc(C(F)(F)F)c1 [CBK002802]	91.9	
N#Cc1ccc(COc2cccc(C(F)(F)F)c2)cc1 [CBK002811]	103	
Cc1ccc(Oc2ccc(C(F)(F)F)cc2[N+](=O)[O-])c(Br)c1 [CBK002817]	93.1	
Cc1ccc(Oc2c([N+](=O)[O-])ncn2C)c(Br)c1 [CBK002819]	99.2	
Cc1ccc(Oc2ncccc2[N+](=O)[O-])c(Br)c1 [CBK002822]	94.8	
Cc1ccc(Oc2cc(C)c([N+](=O)[O-])cn2)c(Br)c1 [CBK002823]	92.2	
Cc1ccc(Oc2ccc([N+](=O)[O-])cc2)c(Br)c1 [CBK002832]	90.6	
Cc1ccc(OCc2ccccc2)c(Br)c1 [CBK002833]	105	
Cc1ccc(OCc2ccc(Cl)s2)c(Br)c1 [CBK002840]	79	
Cc1ccc(OCc2ccc(Cl)nc2)c(Br)c1 [CBK002842]	75.8	
CCN(CC)C(=O)[C@@H]1CCCN1c1nc(O)cc(C(F)(F)F)n1 [CBK002867]	92	
Cc1cc(=O)oc2cc(SCc3ccc(SC(F)(F)F)cc3)ccc12 [CBK002897]	97.6	
Cc1cc(=O)oc2cc(SCc3ccc(Cl)s3)ccc12 [CBK002898]	89.5	
O=[N+]([O-])c1ccc(Sc2cccc(F)c2)nc1 [CBK002905]	103	
Fc1cccc(Sc2nnnn2-c2ccccc2)c1 [CBK002906]	108	

SMILES	viability at 28.5 h, 10 µM [%]	viability at 28.5 h, 10 µM (bulk resorufin, single well) [%]
N#Cc1ccc(Sc2cccc(F)c2)c(F)c1 [CBK002909]	115	
Cc1ccccc1CSc1cccc(F)c1 [CBK002913]	109	
Cc1cc(=O)oc2cc(Sc3cccc(C(F)(F)F)c3C#N)ccc12 [CBK002914]	93.3	
Cc1cc(CSc2cccc(F)c2)no1 [CBK002916]	97	
N#Cc1ccc(CSc2cccc(F)c2)cc1 [CBK002918]	109	
N#Cc1ccccc1-c1ccc(CSc2cccc(F)c2)cc1 [CBK002920]	107	
CN1CCN(c2nc(NS(=O)(=O)c3ccc(C#N)cc3)cc3ccccc23)CC1 [CBK002977C]	94.8	
CC(C)(C)OC(=O)N1CCN(c2ccc(C(F)(F)F)c(Cl)n2)CC1 [CBK003030]	88.9	
COc1ccc(OC)c(CCO)c1 [CBK003033]	94.4	
CC(C)(C)OC(=O)N1CCC(Oc2ccccc2C#N)C1 (centres unmarked) [CBK003039]	84.9	
Cc1cccc(C)c1OCC(O)CNCCc1ccccc1 (centres unmarked) [CBK003072]	107	
O=S(=O)(Nc1ccc(N2CCNCC2)c2ccccc12)c1cc(Cl)sc1Cl [CBK003116C]	93.9	
O=S(=O)(Nc1ccc(N2CCNCC2)c2ccccc12)c1ccc(Cl)s1 [CBK003146C]	104	
CC(C)(C)OC(=O)N1CCN(c2ccc(N)c3ccccc23)CC1 [CBK003162]	88.3	
c1ccc(CNc2cccc(N3CCNCC3)n2)cc1 [CBK003176T]	92	
CC(C)(C)OC(=O)NC(C)(C)C(=O)N1CC(C(=O)O)C(c2cc3ccccc3o2)C1 (centres unmarked) [CBK003236]	88	
CC(C)(CN(Cc1ccccc1)C(=O)/C=C/c1ccccc1)NC(=O)OC(C)(C)C [CBK003266]	91.2	
CCNc1nc(Sc2ccc(Cl)cc2)cc(C(F)(F)F)n1 [CBK003349]	79.4	
O=C(CCC(=O)c1ccccc1)NC1CCc2ccccc21 (centres unmarked) [CBK003351]	103	
Cc1ccc(S(=O)(=O)N2CCC(OC(N)=O)CC2)cc1 [CBK003369]	106	
CN(C)[C@H]1CCC[C@@H]1C(=O)Nc1ccc(Cl)c(Cl)c1 [CBK003406]		86.9
CCC(=O)N(C[C@H]1CCC[C@@H]1N(C)C)c1ccc(Cl)c(Cl)c1 [CBK003408]		96.5
CC(C)(C)OC(=O)CN1C(=O)N[C@@H]2CCCC[C@@H]21 [CBK003423]	84.8	
CCC(CC)Cn1c(-c2cccnc2)nc2cc(S(=O)(=O)NCCO)ccc21 [CBK003450]	91	

SMILES	viability at 28.5 h, 10 µM [%]	viability at 28.5 h, 10 µM (bulk resorufin, single well) [%]
O=C(O)c1cccc2c3c([nH]c12)CCCCC3 [CBK003451]	85	
CSc1nc(N)cc(N2CCN(C(=O)OC(C)(C)C)CC2)n1 [CBK003458]	111	
CC(C)(C)OC(=O)N1CCN(c2ccc(N)cn2)CC1 [CBK003463]	95.5	
CC(=O)Nc1ccc2c(c1)CCC(C)C2=O (centres unmarked) [CBK003474]	78.4	
Cc1c(Cl)cccc1S(=O)(=O)Nc1nc(CCN2CCOCC2=O)cs1 [CBK003498K]	87.7	
CN(C(=S)NCc1ccccc1)C1CC[C@@]2(c3ccc(F)cc3)CCN(C)[C@H]2C1 (some centres unmarked) [CBK003500C]	90.1	
COC(=O)c1sccc1S(=O)(=O)n1ccc2ccc(Br)cc21 [CBK003528]	92.6	
CC(C)(C)OC(=O)N1CCN(c2ccnc(N)n2)CC1 [CBK003529]	99.4	
Cn1c(=O)c2c(O)cc(=O)oc2c2ccccc21 [CBK003546]	93.3	
Cc1cc(Oc2ccccc2)nc(NCc2ccccc2)n1 [CBK003557]	99.1	
Oc1cc(C(F)(F)F)nc(NCc2ccncc2)n1 [CBK003563]	85.5	
OC(COc1cccc2c1CCCC2)CN1CCC(O)(c2ccccc2)CC1 (centres unmarked) [CBK003585]	87.3	
CCNC(=S)NC1CC[C@@]2(C3=CC=CC4C=CC=CC34)CCN(C)[C@H]2C1 (some centres unmarked) [CBK003596C]	91.7	
CC(C)CC(=O)N1CCN(C(=O)c2ccc(F)cc2)CC1 [CBK003603]	91.1	
COc1cc(C(=O)N2CCN(C(=O)CC(C)C)CC2)cc(OC)c1OC [CBK003604]	99.2	
CCCCNC(=S)N[C@H]1CC[C@@]2(C3=CC=CC4C=CC=CC34)CCN(C)[C@H]2C1 (some centres unmarked) [CBK003610C]	101	
Nn1c(-c2cccs2)nc2ccccc2c1=O [CBK003650]	99.2	
C=C(C)CNc1ccccc1C(=O)OC [CBK003656C]	89.1	
C[C@H](NC(=O)OC1CC[C@@]2(c3ccccc3)CCN(C)[C@H]2C1)c1cccc2ccccc12 (some centres unmarked) [CBK003664]	111	
COc1ccc(NC(=O)C2CCCN2c2nc(O)cc(C(F)(F)F)n2)cc1 (centres unmarked) [CBK003704]	77	
CC(=O)N1CC(C)(C)c2ccccc21 [CBK003715]	99.6	
CC(C)CNCC1CC(C(=O)N2CCC(Cc3ccccc3)CC2)=NO1 (centres unmarked) [CBK003718C]	89.7	
CC(NC(=O)n1ccc2c(N3CCNCC3)cccc21)c1ccccc1 (centres unmarked) [CBK003729C]	90.7	
O=C(Nc1c(F)cccc1F)n1ccc2c(N3CCNCC3)cccc21 [CBK003745C]	89.5	

SMILES	viability at 28.5 h, 10 µM [%]	viability at 28.5 h, 10 µM (bulk resorufin, single well) [%]
COc1ccc([C@@]23CCC(NC(=O)CCc4cccnc4)C[C@@H]2N(C)CC3)cc1OC (some centres unmarked) [CBK003770]	92.8	
Nc1nc(CCN2CCOCC2=O)cs1 [CBK003792]	85.8	
COc1cc2c(cc1OC)CN(CC(O)COc1cccc3c1CCCC3)CC2 (centres unmarked) [CBK003828]	113	
OC(CNCCc1c[nH]c2ccccc12)COc1cccc2c1CCCC2 (centres unmarked) [CBK003831]	93.9	
O=c1cc(-c2ccccc2)nc(N2CCOCC2)[nH]1 [CBK003840]	93.9	
CN1CC(CO)Oc2ccccc21 (centres unmarked) [CBK003872C]	104	
CC(C)(C)OC(=O)N1CCN(c2ccccc2O)CC1 [CBK003878]	94.5	
Clc1nc2ccccc2nc1N1CCNCC1 [CBK003880]	96	
Clc1ncccc1OCCOc1ccccc1 [CBK003888]	87.2	
NC1CCN(c2nccnc2OCCOc2cccnc2)CC1 [CBK003889F]	82.3	
COc1cccc(CC2(C#N)CC2)c1 [CBK003907]	87.5	
Cc1nc(Nc2ccc(Cl)cc2)nc(Oc2ccccc2)n1 [CBK003915]	101	
O=C(NC1CCCC1)C1CCCN1c1nc(O)cc(C(F)(F)F)n1 (centres unmarked) [CBK003927]	83.5	
CCCCc1cc(=O)[nH]c(NCc2ccc(C(F)(F)F)cc2)n1 [CBK003946]	92.5	
COc1ccc(NC(=O)C2CCCN2c2nc(O)cc(C(F)(F)F)n2)c(OC)c1 (centres unmarked) [CBK003951]	94.9	
FC(F)(F)c1ccc(N2CCNCC2)nc1OCc1ccccc1COc1ccccc1 [CBK003965A]	91.9	
CCSc1nc(N2CCNC[C@@H]2C)ccc1C(F)(F)F [CBK003986A]	96.1	
C[C@@H]1CN(c2ccc(C(F)(F)F)c(OCc3ccccc3)n2)CCN1 [CBK003987A]	94	
CCOc1ccsc1C(=O)Nc1cc(C)ccn1 [CBK004029]	88.3	
Cc1ccnc(NC(=O)c2ccccc2)c1 [CBK004031]	90.6	
CC(C)(C)OC(=O)N1CCC(Oc2ccc(CN)cc2)CC1 [CBK004131]	81.7	
Cc1nc2ccccc2c(=O)n1CC(N)=O [CBK004145]	89.8	
Cc1ccc(S(N)(=O)=O)cc1NC(=O)c1ccco1 [CBK004204]	93.7	
